≈ marks a conversion by molar mass, not a printed value.
What was measured:
[1] = test system: HT-29 human colorectal carcinoma cells; test: Cell growth inhibition assay, resazurin (Table 3.2); format: cell-based; conditions: Table 3.2, HT-29 cells, read-out: EC50 (M) Mean
Description: The cytotoxic effects of various derivatives of dehydrophenylahistin against HT-29 human colorectal carcinoma cells were determined.
HT-29 cells (ATCC; HTB-38) were maintained in ATCC recommended culture media and cultured in an incubator at 37° C. in 5% CO2 and 95% humidified air.
For cell growth inhibition assays, HT-29 cells were seeded at 5×10^3 cells/well in 90 μl complete media into a Corning 3904 black-walled, clear-bottom tissue culture plates and the plates were incubated overnight to allow cells to establish and enter log phase growth. 20 mM stock solutions of compounds were prepared in 100% DMSO and stored at −80° C. 10× concentrated serial dilutions of the compounds were prepared in culture medium for final concentrations ranging from 20 μM to […]. Ten μl volumes of the 10× serial dilutions were added to the test wells in triplicate and the plates returned to the incubator for 48 hours. The final concentration of DMSO was 0.25% in all samples.
(§1) Following 48 hours of drug exposure, 10 μl of 0.2 mg/ml resazurin (obtained from Sigma-Aldrich Chemical Co.) in Mg^2+, Ca^2+ free phosphate buffered saline was added to each well and the plates were returned to the incubator for 3-4 hours. […] Resazurin dye in medium without cells was used to determine the background, which was subtracted from the data for all experimental wells.

[2] = test system: B16-F10 melanoma; test: Cell growth inhibition assay, resazurin (Example 11); format: cell-based; conditions: Mus musculus, 48 hours, mean ± SD where n ≧ 3
Description: (§2) The growth inhibitory activity of NPI-2421, NPI-2463, NPI-2503 and NPI-2504 were determined against selected human (colorectal adenocarcinoma, HT-29; breast adenocarcinoma, MDA-MB-231; non-small cell lung carcinoma, NCI-H292 and prostate carcinomas, PC-3 and DU 145) and mouse (melanoma, B16-F10) tumor cell lines.
(§3) HT-29 (HTB-38), MDA-MB-231 (HTB-26), NCI-H292 (CRL-1848), B16-F10 (CRL-6475), PC-3 (CRL-1435) and DU 145 (HTB-81) cells were all purchased from the ATCC. The cell lines were maintained in their respective ATCC recommended culture media and cultured in an incubator at 37° C. in 5% CO2 and 95% humidified air.
(§4) 20 mM stock solutions of compounds were prepared in 100% DMSO and stored at −80° C. 10× concentrated serial dilutions of the compounds were prepared in B16-F10 cell culture medium for final concentrations ranging from 20 μM to […]. Ten μl volumes of the 10× serial dilutions were added to the test wells in triplicate and the plates returned to the incubator for 48 hours. The final concentration of DMSO was 0.25% in all samples.
as §1, with “3-6” for “3-4”

[3] = test system: HT-29 colorectal adenocarcinoma; test: as above; format: cell-based; conditions: Homo sapiens, 48 hours, mean ± SD where n ≧ 3
Description: as §2, §3, §4
as §1, with “3-6” for “3-4”

[4] = test system: MDA-MB-231 breast adenocarcinoma; test: as above; format: cell-based; conditions: Homo sapiens, 48 hours, mean ± SD where n ≧ 3
Description: as §2, §3, §4
as §1, with “3-6” for “3-4”

[5] = test system: NCI-H292 non-small cell lung carcinoma; test: as above; format: cell-based; conditions: Homo sapiens, 48 hours, mean ± SD where n ≧ 3, ** n = 1
Description: as §2, §3, §4
as §1, with “3-6” for “3-4”

[6] = test system: PC-3 prostate carcinoma; test: as above; format: cell-based; conditions: Homo sapiens, 48 hours, mean ± SD where n ≧ 3, ** n = 1
Description: as §2, §3, §4
as §1, with “3-6” for “3-4”

[7] = test system: MES-SA human uterine sarcoma; test: as above; format: cell-based; conditions: mean ± standard deviation of three independent experiments
Description: (§5) Human uterine sarcoma (MES-SA; CRL-1976), its multidrug resistant derivative (MES-SA/Dx5; CRL-1977), human acute promyelocytic leukemia cells (HL-60; CCL-240) and its multidrug resistant derivative (HL-60/MX2; CRL-2257) were purchased from ATCC and maintained in appropriate culture media. The cells were cultured in an incubator at 37° C. in 5% CO2 and 95% humidified air.
(§6) For cell growth inhibition assays, MES-SA and MES-SA/Dx5 cells were both seeded at 3×10^3 cells/well in 90 μl complete media into 96 well (Corning; 3904) black-walled, clear-bottom tissue culture plates and the plates were incubated overnight to allow cells to establish and enter log phase growth. HL-60 and HL-60/MX2 cells were both seeded at 5×10^4 cells/well in 90 μl complete media into 96 well plates on the day of compound addition. 20 mM stock solutions of the compounds were prepared in 100% DMSO and stored at −80° C. […] Ten μl volumes of the 10× serial dilutions were added to the test wells in triplicate and the plates returned to the incubator for 48 hours. The final concentration of DMSO was 0.25% in all samples.
as §1, with “3-6” for “3-4”
(§7) The multidrug resistant MES-SA/Dx5 tumor cell line was derived from the human uterine sarcoma MES-SA tumor cell line and expresses elevated P-Glycoprotein (P-gp), an ATP dependent efflux pump. The data in Table 19 summarize the growth inhibitory effects of NPI-2421, NPI-2463, NPI-2503, NPI-2504 and NPI-2506 against MES-SA and its multidrug resistant derivative MES-SA/Dx5. Paclitaxel, a known substrate of the P-gp pump was included as a control.

[8] = test system: MES-SA/Dx5 multidrug resistant; test: as above; format: cell-based, human; conditions: for EC50: Homo sapiens, MES-SA/Dx5, mean ± standard deviation of three independent experiments; for cytotoxic activity against both MES-SA and MES-SA/Dx5: in words; for Fold change: ratio of EC50 values (MES-SA/Dx5:MES-SA)
Description: as §5, §6
as §1, with “3-6” for “3-4”
as §7

[9] = test system: HL-60 human acute promyelocytic leukemia cells; test: as above; format: cell-based; conditions: mean values of two independent experiments
Description: as §5, §6
as §1, with “3-6” for “3-4”
(§8) HL-60/MX2 is a multidrug resistant tumor cell line derived from the human promyelocytic leukemia cell line, HL-60 and expresses reduced topoisomerase II activity. The data presented in Table 20 summarize the growth inhibitory effects of NPI-2421, NPI-2463, NPI-2503, NPI-2504 and NPI-2506 against HL-60 and its multidrug resistant derivative HL-60/MX2. Mitoxantrone, the topoisomerase II targeting agent was included as a control.

[10] = test system: HL-60/MX2 multidrug resistant; test: as above; format: cell-based, human; conditions: for EC50: Homo sapiens, HL60/MX2, HL-60/MX2, mean values of two independent experiments; for cytotoxic activity against both HL-60 and HL-60/MX2: in words; for Fold change: ratio of EC50 values (HL-60/MX2:HL-60)
Description: as §5, §6
as §1, with “3-6” for “3-4”
as §8

[11] = test system: HT-29 cells; test: Additional cytotoxicity assays, resazurin (Table 3.1); format: cell-based, human; conditions: Table 3.1
Description: 10× concentrated serial dilutions of the two compounds were prepared in appropriate culture medium for final concentrations ranging from 2.0×10^−5 M to 2.0×10^−10 M. Ten μl volumes of the 10× serial dilutions were added to the test wells in triplicate and the plates returned to the incubator for 48 hours.
as §1, with “exposure” for “exposure,”, “PBS” for “phosphate buffered saline”, “dye” for “dye in medium”, “wells. The data were analyzed using Prism software (GraphPad Software).” for “wells.”
Additional cytotoxicity assays were performed as described above under this example, using Resazurin fluorescence as an indicator of cell viability.

[12] = test system: Trichophyton rubrum; test: Antifungal susceptibility testing, broth dilution (MIC/MFC); format: cell-based; conditions: Trichophyton rubrum
Description: Specifically, disclosed compounds were evaluated alongside commercially available microtubulin inhibitors as well as recognized antifungal agents.
(§9) Microorganisms against which these compounds were tested included: Candida albicans, Candida glabrata, Aspergillus fumigatus, Trichophyton rubrum, Trichophyton mentagrophytes, Epidermophyton floccosum. With the exception of Candida glabrata (one isolate), two isolates of each species were tested.
(§10) The minimum lethal concentration (MLC) was determined by plating […] from the MIC concentration and each concentration above the MIC. […] When a MIC was obtained, a minimum fungicidal concentration (MFC) was determined to assess the fungistatic/fungicidal nature of the compound.

[13] = test system: Epidermophyton floccosum; test: as above; format: cell-based
Description: (§11) Specifically, disclosed compounds were evaluated alongside commercially available microtubulin inhibitors as well as recognized antifungal agents. […].
as §9
(§12) Drug concentrations were 0.03-16 μg/ml for the investigational compounds, 0.015-8 μg/ml for itraconazole and griseofulvin.
as §10, with “compound. […] The compound is scored as fungistatic if the cells are able to resume growth and fungicidal if no regrowth is possible because the compound had killed the organisms.” for “compound.”

[14] = test system: Trichophyton mentagrophytes; test: as above; format: cell-based; conditions: Trichophyton mentagrophytes
Description: as §11, §9, §12
as §10, with “compound. […] The compound is scored as fungistatic if the cells are able to resume growth and fungicidal if no regrowth is possible because the compound had killed the organisms.” for “compound.”

EC50 [1] [M] | EC50 [2] [nM] | EC50 [3] [nM] | EC50 [4] [nM] | EC50 [5] [nM] | EC50 [6] [nM] | EC50 [7] [nM] | EC50 [9] [nM] | EC50 [10] [nM] | Compound | EC50 [8] [nM] | cytotoxic activity against both MES-SA and MES-SA/Dx5 [8] | Fold change [8] | cytotoxic activity against both HL-60 and HL-60/MX2 [10] | Fold change [10] | also measured
1.48e-08 | 14 ± 3 | 11 | 17 | 42 | > 2000 | 13 ± 3 | 30 | 13 | CC(C)(C)c1ocnc1/C=c1\[nH]c(=O)/c(=C/c2c(F)c(F)cc(F)c2F)[nH]c1=O [Compound 2504, tBu-oxadelta-PLH-2,3,5,6-tetrafluoro] | 14 ± 3 | retained equivalent cytotoxic activity | 1.1 | retained cytotoxic activity | 0.4 | –
2.4e-08 | – | – | – | – | – | 22 ± 3 | 32 | 31 | CC(C)(C)c1ocnc1/C=c1\[nH]c(=O)/c(=C/c2c(F)ccc(F)c2F)[nH]c1=O [Compound 2506, tBu-oxadelta-PLH-2,3,6-trifluoro] | 27 ± 6 | retained equivalent cytotoxic activity | 1.2 | retained cytotoxic activity | 1.0 | –
1.14e-08 | 16 ± 2 | 17 | 21 | 52 | > 2000 | 13 ± 3 | 28 | 19 | CC(C)(C)c1ocnc1/C=c1\[nH]c(=O)/c(=C/c2cc(F)cc(F)c2F)[nH]c1=O [Compound 2503, tBu-oxadelta-PLH-2,3,5-trifluoro] | 13 ± 3 | retained equivalent cytotoxic activity | 1.0 | retained cytotoxic activity | 0.7 | –
– | – | – | – | – | – | – | – | – | CC(C)(C)c1[nH]cnc1/C=C1\NC(=O)[C@H](Cc2ccccc2)NC1=O [Compound 2460, (−)-tBu-PLH] | – | – | – | – | – | EC50 ([11]; Homo sapiens, HT-29, read-out: EC50 (M) Mean): 2.55e-07 M; % cytotox Mean [11]: 87%; MFC ([12]; T. rubrum isolate #1): 0.125 µg/mL (≈ 0.369 µM); MIC ([12]; T. rubrum isolate #1): < 0.03 µg/mL; MFC ([12]; T. rubrum isolate #2): < 0.03 µg/mL; MIC ([12]; T. rubrum isolate #2): < 0.03 µg/mL; MIC ([13]; E. floccosum isolate #1): > 16 µg/mL; MIC ([13]; E. floccosum isolate #2): > 16 µg/mL; MFC ([14]; T. mentagrophytes isolate #1): > 16 µg/mL; MIC ([14]; T. mentagrophytes isolate #1): 4 µg/mL (≈ 11.8 µM); MIC ([14]; T. mentagrophytes isolate #2): > 16 µg/mL

— patent US8129527B2, “Analogs of dehydrophenylahistins and their therapeutic use” (Nereus Pharmacuticals, Inc., priority 2006, dated 2012)
